What was measured:
Type in all cases: cell-based, mouse
[1] = tested on: osteoclast like cells from bone marrow cells of mice of ddy strain; assay: Formation of osteoclast like cells from bone marrow cells of mice of ddy strain
Protocol: Bone marrow cells were prepared in accordance with the method by Takahashi et al (Takahashi, N. et al., Endocrinology, 122, 1373, 1988). Male mice of ddy strain of 7 weeks old were exanguinated to death under ether anesthesia and the femur and the tibia of hind legs were collected from each mouse. The connective tissues on the surfaces of the bones were carefully removed, and both ends of each bone were cut off with scissors. The bone marrow cells were suspended in α-Minimum Essential Medium (α-MEM, Nissui Pharmaceuticals Co.) containing 10% pre-colostrum new born calf serum (Mitsubishi Chemical, hereinafter referred to as “JCS” for short) and the suspension was flushed out through a 25 G needle attached to a syringe to collect the suspension in a centrifugal tube. The collected suspension was washed by centrifugation in the same medium at 2000 rpm at 4° C. for 5 minutes. The precipitated cells were dispersed in the above-mentioned medium and the washing by centrifugation was repeated twice, thereby preparing bone marrow cells. Murine IFN-α (hereinafter referred to as “MuIFNα” for short), Lot. B13010, 106 units/ml/vial (Calbiochem-Novabiochem International, San Diego, Calif.), murine IFN-β (hereinafter referred to as “MuIFNβ” for short), Lot M-0034, 10 units/ml/vial (Toray Industries, Inc.) and murine IFNγ (hereinafter referred to as “MuIFNγ” for short), Lot 254F3, 2.06×10^6 units/ml (Genentech, Calif.) were respectively dissolved in 10% JCS-containing α-MEM (Nissui Pharmaceuticals Co.) to the desired concentrations. Active vitamin D3 ([…], Wako Pure Chemical Industries, Ltd., hereinafter referred to as “Vit D3” for short) was dissolved in argon-saturated ethanol, and the obtained solution was diluted so as to attain the final ethanol concentration of 0.1% in all of the culture systems.
(§1) The number of viable bone marrow cells was counted using tripam blue dye exclusion test and the bone marrow cells were diluted with α-MEM containing 10% JCS, 10^−8M Vit D3, 10^−7 M dexamethasone to a population density of 1.5×10^6 cells/ml, followed by placing the resulting suspension in each well in 24-well plates in an amount of 0.45 ml/well. To each well, 50 μl of the medium containing varying concentration of IFN was added to make the volume to 0.5 ml/well and culturing was begun. At every three days, 0.4 ml of the culture medium was removed from each well and 0.4 ml of fresh medium (the above-mentioned medium containing the respective concentration of IFN) was added. On Day 8 from the beginning of the culturing, the medium was removed and the cells were fixed with mixed solution of ethyl alcohol and diethyl ether (1:1) and the cells were stained with tartrate resistant acid phosphatase (TRAP), followed by counting TRAP positive multinuclear cells with a phase contrast microscope. […] The inhibition effect of IFNγ was stronger than that of IFNβ. That is, the inhibition concentration IC50 of IFNγ was not more than 0.1 units/ml, and that of IFNβ was 0.2 units/ml.
The effects of the three murine IFNs, that is, MuIFNβ, γ and α in terms of abilities to inhibit formation of osteoclast like cells from bone marrow cells in mice of ddy strain were compared. The test was carried out as in Example 1. All of the murine IFNs inhibited the formation of osteoclast like cells, and the effect was strong in the order of γ, β and α. […] Thus, the activity of IFNα to inhibit formation of osteoclasts was about 1/20 of that of IFNβ and about not more than 1/100 of that of IFNγ.

[2] = tested on: osteoclast like cells from bone marrow cells of mice of C 57 BL/6 strain; assay: Formation of osteoclast like cells from bone marrow cells of mice of C 57 BL/6 strain; conditions: Example 2, C 57 BL/6 strain bone marrow cells
Protocol: as §1
In place of mice of ddy strain, male mice of C 57 BL/6 of 7 weeks old were used. The mice were exanguinated to death under ether anesthesia and the femur and the tibia of hind legs were collected from each mouse. The connective tissues on the surfaces of the bones were carefully removed, and both ends of each bone were cut off with scissors. The bone marrow cells were suspended in α-MEM containing 10% JCS and the suspension was flushed out through a 25 G needle attached to a syringe to collect the suspension in a centrifugal tube. The collected suspension was washed by centrifugation in the same medium at 2000 rpm at 4° C. for 5 minutes. The precipitated cells were dispersed in the above-mentioned medium and the washing by centrifugation was repeated twice. Formation of osteoclast like cells was measured by the same method as in Example 1.

MC3T3-E1 cells [3] = assay: Proliferation of murine osteoblastic cells MC3T3-E1 (in vitro single administration)
Protocol: Murine osteoblast like cells MC3T3-E1 originated from C 57 BL/6 mouse (Kodama et al., Jap. J. Oral Biol., 23, 899, 1982) were washed with PBS(−) and the cells were dissociated by incubation in PBS(−) containing 0.1% pronase (Actinase E, Kaken Pharmaceuticals Co.), followed by dispersing the cells in α-MEM containing 10% JCS and 50 μg/ml of L-ascorbic acid (ASA). The ability to promote proliferation of cells was evaluated as follows. That is, MC3T3-E1 cells were placed in each well in 24-well plates (Corning) in an amount of 5000 cells/well. Then each IFN dilution was added to each well in an amount of 0.1 ml/well, and the culturing was begun. On Day 2, the medium was removed and the each IFN dilution was added in an amount of 0.5 ml/well (total amount of liquid: 0.5 ml/well). On Day 6, the medium was removed and the cells were washed with PBS(−) and a mixed enzyme solution of 0.1% pronase/0.1% collagenase was added to each well in an amount of 200 μl/well, followed by allowing to react at 37° C. for 15 minutes. Then α-MEM containing 10% fetal calf serum (Gibco, hereinafter referred to as “FCS” for short) was added in an amount of 300 μl/well to disperse the cells therein and the number of the cells was counted with a Coulter counter.

MC3T3-E1 cells [4] = assay: Mineralization of murine osteoblasts, Von Kossa stain (in vitro single administration); conditions: Day 14
Protocol: As the parameters for evaluation of differentiation ability, alkaline phosphatase (ALPase) and mineralization were employed. Detection of alkaline phosphatase which is a marker of differentiation of osteoblasts was carried out on Day 8 from the beginning of the culturing by staining method. Evaluation of mineralization was carried out as follows. That is, MC3T3-E1 cells were placed in each well of 24-well plates in an amount of 50,000 cells/ml (10 times in the case of anti-cell test in Example 3). On Day 4, after confirming that the cells sufficiently reached confluency, the medium was discarded and fresh α-MEM containing 10% JCS, 50 μg/ml of L-ascorbic acid and 10 mM β-glycerophosphate was added in an amount of 0.9 ml/well, followed by adding medium containing varying concentration of IFN. Four days later, the medium was replaced with IFN-free medium, and the medium was replaced with IFN-free medium every 4 days. On Day 14, Von Kossa stain was performed to visualize the calcified foci. Expression of alkaline phosphatase activity which is a differentiation marker is an indispensable step to the subsequent mineralization.

MC3T3-E1 cells [5] = assay: Quantification of calcium in calcified foci of MC3T3-E1; conditions: MC3T3-E1, Day 14
Protocol: MC3T3-E1 cells were placed in each well in 24-well plates in an amount of 50,000 cells/well and cultured to confluency. The medium was removed and fresh α-MEM containing 10% JCS, 50 μg/ml of L-ascorbic acid and 10 mM β-glycerophosphate was added in an amount of 0.9 ml/well, followed by adding 0.1 ml/well of medium containing varying concentration of IFN. The medium was replaced with IFN-free medium every 4 days. On Day 14, the medium was removed and the cells were lightly washed with Hank's solution. Anhydrous ethanol was added in an amount of 1 ml/well and fixation was carried out at room temperature for 15 minuets. Then the anhydrous ethanol was replaced with fresh anhydrous ethanol in an amount of 1 ml/well and 5 minutes later, each well was dried in the air. Then 1N hydrochloric acid was added in an amount of 1 ml/well and extraction was carried out at room temperature for 30 minutes. The total contents of each well were transferred to an Eppendorf tube and centrifuged at 1800×g at 4° C. for 10 minutes The amount of calcium in the supernatant was measured by Calcium C Test Wako and the amount of inorganic phosphorus in the supernatant was measured by Phospha B Test Wako. […] The IC50 value was as low as about 10 units/ml (FIG. 5).

inhibition concentration IC50 of formation of osteoclast like cells ([1]; Example 1, Vit D3 + dexamethasone, Day 8, TRAP positive multinuclear cells): not more than 0.1 units/ml | IC50 of inhibition of formation of osteoclast like cells ([1]; Example 8 comparison of three murine IFNs): not more than 0.1 units/ml | IC50 of formation inhibition of osteoclast like cells ([2]; Day 8): 1.5 units/ml | IC50 value of inhibition of mineralization (MC3T3-E1 cells [4]; Von Kossa): 3-4 units/ml | IC50 value of inhibition of calcium deposition (MC3T3-E1 cells [5]): about 10 units/ml
Substance: MuIFNγ: murine interferon γ, standard product Lot 254F3, provided by Genentech
inhibition of formation of osteoclast like cells ([1]; Example 1, Day 8, TRAP positive multinuclear cells): strongly inhibited formation of osteoclast like cells | inhibition of formation of osteoclast like cells [2]: strongly inhibited formation of osteoclast like cells | inhibition of proliferation of MC3T3-E1 cells (MC3T3-E1 cells [3]; 10,000 units/ml, cell count on Day 6): about 30% | dose from which slight inhibition of proliferation was observed (MC3T3-E1 cells [3]; MC3T3-E1, Day 6): 1 unit/ml | concentration at which the inhibition effect on mineralization was expressed (MC3T3-E1 cells [4]): 10 units/ml | influence on mineralization (calcified foci, Von Kossa stain) (MC3T3-E1 cells [4]): strong and dose dependent inhibition action on mineralization | calcium deposition smaller than the control (MC3T3-E1 cells [5]; 1000 units/ml): 70%
